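The compound was tested at five concentrations on cells cultured in 96-well plates, with a 48-hour exposure period. GI50: concentration for 50% inhibition of growth.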 Active and inactive are the calls of the source. Rule as the data show it: active = GI50 up to about 1.1 µM and inactive = higher.
Legend:
Assay in all cases: DTP human tumour cell line panel, 48 h
[1] = system: TK-10
[2] = system: MCF7
[3] = system: SR
[4] = system: MOLT-4
[5] = system: SF-295
[6] = system: NCI-H522
[7] = system: ACHN
[8] = system: OVCAR-4
[9] = system: NCI-H226
[10] = system: A549
[11] = system: PC-3
[12] = system: OVCAR-3
[13] = system: HOP-62
[14] = system: EKVX
[15] = system: MDA-MB-435
[16] = system: SN12C
[17] = system: T47D
[18] = system: U-251
[19] = system: HCT-116
[20] = system: SK-MEL-5

Measured: GI50

O=S1(=O)Cc2ccc3c4c2-c2c(ccc5ccc(c-4c25)CS(=O)(=O)C3)C1
inactive: [1] 79.6 µM | [2] 92.3 µM | [3] 10.2 µM | [4] 23.1 µM | [5] > 100 µM | [6] 46.8 µM | [7] 20.7 µM | [8] > 100 µM | [9] > 100 µM | [10] > 100 µM | [11] 93.1 µM | [12] > 100 µM | [13] > 100 µM | [14] 89.1 µM | [15] > 100 µM | [16] 82.4 µM | [17] 55.3 µM | [18] > 100 µM | [19] 46.3 µM

Cc1ccc(OCCn2cc(Nc3ccccc3)c(=O)[nH]c2=O)cc1
inactive: [1] > 100 µM | [2] > 100 µM | [3] > 100 µM | [4] > 100 µM | [5] > 100 µM | [6] > 100 µM | [7] > 100 µM | [8] > 100 µM | [9] > 100 µM | [10] > 100 µM | [11] > 100 µM | [20] > 100 µM | [12] > 100 µM | [14] > 100 µM | [15] > 100 µM | [16] > 100 µM | [17] > 100 µM | [18] > 100 µM | [19] > 100 µM

CCOC(=O)c1cn(CC)c2cc3c(cc2c1=O)CCS3(=O)=O
inactive: [1] > 100 µM | [2] > 100 µM | [3] > 100 µM | [4] > 100 µM | [5] > 100 µM | [7] > 100 µM | [9] > 100 µM | [10] > 100 µM | [11] > 100 µM | [20] > 100 µM | [12] > 100 µM | [13] > 100 µM | [14] > 100 µM | [15] > 100 µM | [16] > 100 µM | [17] > 100 µM | [18] > 100 µM | [19] > 100 µM

CC(=O)Oc1c(-c2ccccc2)sc2ccccc12
inactive: [1] 22.6 µM | [2] 27.6 µM | [3] 10.1 µM | [4] 14.7 µM | [5] 18.6 µM | [6] 19 µM | [7] 15.6 µM | [8] 23 µM | [9] 13.3 µM | [10] 20.6 µM | [11] 25.5 µM | [20] 18.5 µM | [12] > 10 µM | [13] 22.3 µM | [14] 22.3 µM | [15] 25 µM | [17] 10.7 µM | [18] 18 µM | [19] 13.4 µM

CCCCc1ccc(N2C(=O)c3cc([N+](=O)[O-])cnc3S2(=O)=O)cc1
inactive: [1] > 100 µM | [2] 59.8 µM | [3] 43.3 µM | [4] > 100 µM | [5] 47.2 µM | [7] > 100 µM | [8] > 100 µM | [9] > 100 µM | [10] > 100 µM | [11] > 100 µM | [20] > 100 µM | [12] > 100 µM | [13] > 100 µM | [14] > 100 µM | [15] > 100 µM | [16] > 100 µM | [17] > 100 µM | [18] 31.8 µM | [19] > 100 µM

COC(=O)[C@]12CSC[C@H]1C[C@H](c1cccc3ccccc13)N2
inactive: [2] 57.7 µM | [3] 37.8 µM | [4] 18.2 µM | [5] > 100 µM | [7] 39.4 µM | [9] 96.2 µM | [10] 93.3 µM | [11] > 100 µM | [20] > 100 µM | [12] > 100 µM | [13] > 100 µM | [14] > 100 µM | [15] > 100 µM | [16] > 100 µM | [17] > 100 µM | [18] 69.8 µM | [19] 51.6 µM

CN(C)CCOc1ccc([N+](=O)[O-])c2cccnc12
inactive: [1] > 100 µM | [2] > 100 µM | [3] > 100 µM | [4] 60.8 µM | [5] > 100 µM | [6] 61.9 µM | [7] > 100 µM | [9] > 100 µM | [10] > 100 µM | [11] > 100 µM | [20] > 100 µM | [12] > 100 µM | [13] > 100 µM | [15] > 100 µM | [16] 60.4 µM | [17] > 100 µM | [18] > 100 µM | [19] 35.6 µM

CCC1=NC(N/N=C/c2ccco2)=N/C1=C\c1ccccc1O
inactive: [1] 59.4 µM | [2] 17.9 µM | [3] 48.4 µM | [4] 25.2 µM | [5] 44.2 µM | [6] 21.8 µM | [7] 21.9 µM | [8] 2.86 µM | [9] 28.4 µM | [10] 41.1 µM | [11] 31.2 µM | [20] 27.2 µM | [13] 76.4 µM | [14] 26.7 µM | [15] 29.5 µM | [16] > 100 µM | [17] 48.9 µM | [18] 56.4 µM | [19] 23.7 µM

COc1ccc(OC)c2c1-c1nnnn1CCC2(C)C
inactive: [1] > 100 µM | [2] > 100 µM | [3] > 100 µM | [4] > 100 µM | [5] > 100 µM | [6] > 100 µM | [7] > 100 µM | [8] > 100 µM | [9] > 100 µM | [11] > 100 µM | [12] > 100 µM | [13] > 100 µM | [14] > 100 µM | [15] > 100 µM | [16] > 100 µM | [17] > 100 µM | [18] > 100 µM | [19] > 100 µM

CN(C)CCSc1cc(-c2ccccc2)c2ccccc2n1
inactive: [1] 7.93 µM | [2] 13.2 µM | [3] 13.6 µM | [4] 6.38 µM | [5] 12.6 µM | [6] 10.7 µM | [7] 13.5 µM | [9] 16.6 µM | [10] 13.6 µM | [11] 12.2 µM | [20] 1.63 µM | [13] 10.3 µM | [14] 15.7 µM | [15] 10.1 µM | [16] 15 µM | [17] 15.4 µM | [18] 10.6 µM | [19] 7.43 µM

O=C(NC1(C(=O)O)CC1c1ccccc1)c1ccccc1 (stereo not drawn)
inactive: [1] > 100 µM | [2] > 100 µM | [3] > 100 µM | [4] > 100 µM | [5] > 100 µM | [6] > 100 µM | [7] > 100 µM | [8] > 100 µM | [9] > 100 µM | [10] > 100 µM | [11] > 100 µM | [12] > 100 µM | [13] > 100 µM | [14] > 100 µM | [15] > 100 µM | [16] > 100 µM | [17] > 100 µM | [18] > 100 µM | [19] > 100 µM

Reference: ChEMBL document CHEMBL1201862, “PubChem BioAssay data set” (2004)
